According to US12606533B2, “3-phenylpropylamine derivative” (DAIICHI SANKYO COMPANY, LIMITED, priority 2023, dated 2026):

Experiments:
SF-1 = target: T1, SF-1 (Homo sapiens, UniProt Q13285); assay: SF1 degradation induction in NCI-H295R SF-1-HiBiT cells (HiBiT DC50); format: cell-based; details: 24 hr, concentration that induces 50% degradation of SF-1
T1 construct: NCI-H295R SF-1-HiBiT cells with HiBiT tag knocked in at the endogenous SF1 locus; host or cells: NCI-H295R SF-1-HiBiT (knock-in at endogenous locus)
Description: NCI-H295R SF-1-HiBiT cells were seeded in a 384-well plate (Thermo Fisher Scientific Inc.) at 1×10^4 cells/50 μL/well and cultured at 37° C. in a 5% CO2 incubator for 24 hr. DMSO solutions of each compound were serially diluted with DMSO using a D300e Digital Dispenser (TECAN), added to a 384-well plate, and cultured in a 5% CO2 incubator at 37° C. for 24 hr. […] After completion of culture, the medium was discarded, and Nano-Glo (registered trade mark) HiBiT Lytic Detection System (Promega, Cat. No. N3040) was added at 20 μL/well and stirred with a plate mixer. Luminescence signals were then detected using a multimode plate reader (EnVision Xcite, PerkinElmer). The SF-1 protein degradation rate was calculated from the amount of luminescence (C) in the compound-free group and the amount of luminescence (T) in the compound-added group, based on the following formula.
The obtained data was analyzed using GraphPad Prism9 (GraphPad Software Inc.) or Genedata Screener (Genedata AG) to calculate the concentration that induces 50% degradation of SF-1 (DC50 value).

NCI-H295R cells = assay: Proliferation inhibitory action on NCI-H295R (CellTiter-Glo, 7 days); format: cell-based, human; details: Homo sapiens, NCI-H295R, 168 h
Description: DMSO solutions of each compound were serially diluted with DMSO using a D300e Digital Dispenser (TECAN), and added to a 384-well plate (Thermo Fisher Scientific Inc.). NCI-H295R cells were seeded in a 384-well plate at 2×10^3 cells/40 μL/well and cultured for 7 days in a 37° C., 5% CO2 incubator. […] On the first day of culture (day 0) and the seventh day of culture (day 7), 10 μL/well of CellTiter-Glo (registered trademark) 2.0 Assay (Promega) was added, and the luminescence signal was detected using a multimode plate reader (EnVision, PerkinElmer). The cell proliferation rate was calculated from the luminescence amount on the day of compound addition (CO), the luminescence amount of the compound-free group after 7 days of culture (C7), and the luminescence amount of the compound-added group (T7), based on the following formula.

Work on `COc1ccc([C@]2(CCN(Cc3ccc([C@H]4CC[C@@H](CN5CCN(C(=O)c6ccc7c(c6)n(C)c(=O)n7C6CCC(=O)NC6=O)CC5)CC4)cc3)CC(C)(C)C(F)(F)F)CCOC(C)(C)C2)cc1` (stereo partly drawn) [Example AI11, 3-{5-[(4-{[Cis-4-(4-{[{2-[(4R)-4-(4-methoxyphenyl)-2,2-dimethyltetrahydro-2H-pyran-4-yl]ethyl}(3,3,3-trifluoro-2,2-dimethylpropyl)amino]methyl}phenyl)cyclohexyl]methyl}piperazin-1-yl)carbonyl]-3-methyl-2-oxo-2,3-dihydro-1H-benzimidazol-1-yl}piperidine-2,6-dione] yielded a DC50 (SF-1) of 6.2 nM and a GI50 (NCI-H295R cells) of 90 nM.
Work on `COc1ccc([C@]2(CCN(Cc3ccc(C4=CCC(CN5CCN(C(=O)c6ccc7c(n6)n(C)c(=O)n7C6CCC(=O)NC6=O)CC5)CC4)cc3)CC(C)(C)C(F)(F)F)CCOC(C)(C)C2)cc1` (stereo partly drawn) [BC6, 3-[5-({4-[(4′-{[{2-[(4R)-4-(4-Methoxyphenyl)-2,2-dimethyltetrahydro-2H-pyran-4-yl]ethyl}(3,3,3-trifluoro-2,2-dimethylpropyl)amino]methyl}-2,3,4,5-tetrahydro[biphenyl]-4-yl)methyl]piperazin-1-yl}carbonyl)-3-methyl-2-oxo-2,3-dihydro-1H-imidazo[4,5-b]pyridin-1-yl]piperidine-2,6-dione] yielded a DC50 (SF-1) of 6.2 nM and a GI50 (NCI-H295R cells) of 48 nM.
For `COc1ccc([C@]2(CCN(Cc3ccc(C4=CC[C@H](CN5CCN(C(=O)c6ccc7c8c6O[C@@H]6COC[C@@H]6n8c(=O)n7C6CCC(=O)NC6=O)CC5)CC4)cc3)CC(C)(C)C(F)(F)F)CCOC(C)(C)C2)cc1` (relative stereo) [BV10, 3-[(6aS*,9aS*)-5-[(4-{[(4R)-4′-{[{2-[(4R)-4-(4-Methoxyphenyl)-2,2-dimethyltetrahydro-2H-pyran-4-yl]ethyl}(3,3,3-trifluoro-2,2-dimethylpropyl)amino]methyl}-2,3,4,5-tetrahydro[biphenyl]-4-yl]methyl}piperazin-1-yl)carbonyl]-1-oxo-6a, 7,9,9a-tetrahydrofuro[3,4-b]imidazo[1,5,4-de][1,4]benzoxazin-2(1H)-yl]piperidine-2,6-dione], the DC50 (SF-1) was 14 nM and the GI50 (NCI-H295R cells) was 123 nM.
`COc1ccc([C@]2(CCN(Cc3ccc(OC4CC5(CCN(CC(=O)Nc6cccc7c6n(C)c(=O)n7C6CCC(=O)NC6=O)CC5)C4)cc3)CC(C)(C)C(F)(F)F)CCOC(C)(C)C2)cc1` (stereo partly drawn) [Example AD1, N-[1-(2,6-Dioxopiperidin-3-yl)-3-methyl-2-oxo-2,3-dihydro-1H-benzimidazol-4-yl]-2-[2-(4-{[{2-[(4R)-4-(4-methoxyphenyl)-2,2-dimethyltetrahydro-2H-pyran-4-yl]ethyl}(3,3,3-trifluoro-2,2-dimethylpropyl)amino]methyl}phenoxy)-7-azaspiro[3.5]nonan-7-yl]acetamide] showed a DC50 (SF-1) of 6.9 nM and a GI50 (NCI-H295R cells) of 47 nM.
`COc1ccc([C@]2(CCN(Cc3ccc(C4=CC[C@H](C(=O)N5CCC(Nc6ccc7c(c6)n(C)c(=O)n7C6CCC(=O)NC6=O)CC5)CC4)c(F)c3)CC(C)(C)C(F)(F)F)CCOC(C)(C)C2)cc1` (stereo partly drawn) [BR3, 3-{5-[(1-{[(4R)-2′-Fluoro-4′-{[{2-[(4R)-4-(4-methoxyphenyl)-2,2-dimethyltetrahydro-2H-pyran-4-yl]ethyl)(3,3,3-trifluoro-2,2-dimethylpropyl)amino]methyl}-2,3,4,5-tetrahydro[biphenyl]-4-yl]carbonyl}piperidin-4-yl)amino]-3-methyl-2-oxo-2,3-dihydro-1H-benzimidazol-1-yl}piperidine-2,6-dione] was tested, and the DC50 (SF-1) was 2.2 nM and the GI50 (NCI-H295R cells) was 23 nM.
`COc1ccc([C@]2(CCN(Cc3ccc(C4=CC[C@@H](CN5CCN(C(=O)c6ccc7c8c6NCCn8c(=O)n7C6CCC(=O)NC6=O)CC5)CC4)cc3)CC(C)(C)C(F)(F)F)CCOC(C)(C)C2)cc1` (stereo partly drawn) [BZ7, 3-{7-[(4-{[(4S)-4′-{[{2-[(4R)-4-(4-Methoxyphenyl)-2,2-dimethyltetrahydro-2H-pyran-4-yl]ethyl}(3,3,3-trifluoro-2,2-dimethylpropyl)amino]methyl)-2,3,4,5-tetrahydro[biphenyl]-4-yl]methyl}piperazin-1-yl)carbonyl]-2-oxo-5,6-dihydro-4H-imidazo[1,5,4-de]quinoxalin-1(2H)-yl}piperidine-2,6-dione] was tested, and the DC50 (SF-1) was 4 nM and the GI50 (NCI-H295R cells) was 27 nM.
`COc1ccc([C@]2(CCN(CC(C)(C)C(F)(F)F)C[C@H]3CC[C@H](c4ccc(NC(=O)N5CCC(Nc6ccc7c(c6)n(C)c(=O)n7C6CCC(=O)NC6=O)CC5)cc4)CC3)CCOC(C)(C)C2)cc1` (stereo partly drawn) [CA1, 4-{[1-(2,6-Dioxopiperidin-3-yl)-3-methyl-2-oxo-2,3-dihydro-1H-benzimidazol-5-yl]amino}-N-[4-(trans-4-{[{2-[(4R)-4-(4-methoxyphenyl)-2,2-dimethyltetrahydro-2H-pyran-4-yl]ethyl) (3,3,3-trifluoro-2,2-dimethylpropyl)amino]methyl}cyclohexyl)phenyl]piperidine-1-carboxamide] gave a DC50 (SF-1) of 5.5 nM and a GI50 (NCI-H295R cells) of 48 nM.
For `COc1ccc([C@]2(CCN(Cc3ccc(C4=CC[C@H](C(=O)N5CCC(Nc6ccc7c(c6)C(=O)N(C6CCC(=O)NC6=O)C7)CC5)CC4)cc3)CC(C)(C)C(F)(F)F)CCOC(C)(C)C2)cc1` (stereo partly drawn) [BS3, 3-{6-[(1-{[(4R)-4′-{[{2-[(4R)-4-(4-Methoxyphenyl)-2,2-dimethyltetrahydro-2H-pyran-4-yl]ethyl)(3,3,3-trifluoro-2,2-dimethylpropyl)amino]methyl}-2,3,4,5-tetrahydro[biphenyl]-4-yl]carbonyl}piperidin-4-yl)amino]-1-oxo-1,3-dihydro-2H-isoindol-2-yl}piperidine-2,6-dione], the DC50 (SF-1) was 14 nM and the GI50 (NCI-H295R cells) was 70 nM.
`COc1ccc([C@]2(CCN(Cc3ccc(C4=CC[C@H](C(=O)N5CCC(Nc6cccc7c6n(C)c(=O)n7C6CCC(=O)NC6=O)CC5)CC4)c(F)c3)CC(C)(C)C(F)(F)F)CCOC(C)(C)C2)cc1` (stereo partly drawn) [CD2, 3-{4-[(1-{[(4R)-2′-Fluoro-4′-{[{2-[(4R)-4-(4-methoxyphenyl)-2,2-dimethyltetrahydro-2H-pyran-4-yl]ethyl}(3,3,3-trifluoro-2,2-dimethylpropyl)amino]methyl}-2,3,4,5-tetrahydro[biphenyl]-4-yl]carbonyl}piperidin-4-yl)amino]-3-methyl-2-oxo-2,3-dihydro-1H-benzimidazol-1-yl}piperidine-2,6-dione] was tested, and the DC50 (SF-1) was 7 nM and the GI50 (NCI-H295R cells) was 33 nM.
For `COc1ccc([C@]2(CCN(Cc3ccc(C4=CC[C@H](C(=O)N5CCN(Cc6ccc7c8c6CN(C)CCn8c(=O)n7C6CCC(=O)NC6=O)CC5)CC4)c(F)c3)CC(C)(C)C(F)(F)F)CCOC(C)(C)C2)cc1` (stereo partly drawn) [CB10, 3-{8-[(4-{[(4R)-2′-Fluoro-4′-{[{2-[(4R)-4-(4-methoxyphenyl)-2,2-dimethyltetrahydro-2H-pyran-4-yl]ethyl}(3,3,3-trifluoro-2,2-dimethylpropyl)amino]methyl}-2,3,4,5-tetrahydro[biphenyl]-4-yl]carbonyl}piperazin-1-yl)methyl]-6-methyl-2-oxo-4,5,6,7-tetrahydroimidazo[4,5,1-jk][1,4]benzodiazepin-1(2H)-yl}piperidine-2,6-dione], the DC50 (SF-1) was 13 nM and the GI50 (NCI-H295R cells) was 85 nM.
